Test: Fasting glucose in diabetic subjects of the clinical study of oral dapansutrile capsules in NYHA II-III systolic heart failure
Type: in vivo, human
[1] = Day 28, 1000 mg per day oral, N = 4
[2] = Day 28, 2000 mg per day oral, N = 4
[3] = Day 28, all dapansutrile subjects pooled, N = 14

## CS(=O)(=O)CCC#N [Dapansutrile, 3-methanesulfonylpropionitrile]
500 mg, 1000 mg, 2000 mg per day
  dose response of fasting glucose change (in words): trend of dose response
2000 mg treatment, Day 14
  mean fast glucose level decrease from the baseline level: 43.5 mg/dL
Day 14 (last day of treatment), 500 mg daily oral, diabetic patients N = 6
  Fasting Glucose Level, Change from Baseline, Mean: -20.0 mg/dL
Day 14, 500 mg daily oral, N = 6
  Fasting Glucose Level, Change from Baseline, Median: -18.5 mg/dL
Day 14, 1000 mg per day (500 mg twice a day) oral, diabetic patients N = 4
  Fasting Glucose Level, Change from Baseline, Mean: -16.5 mg/dL
Day 14, 1000 mg per day oral, N = 4
  Fasting Glucose Level, Change from Baseline, Median: -16.5 mg/dL
Day 14, 2000 mg per day (500 mg 4 times a day) oral, diabetic patients N = 4
  Fasting Glucose Level, Change from Baseline, Mean: -43.5 mg/dL
Day 14, 2000 mg per day oral, N = 4
  Fasting Glucose Level, Change from Baseline, Median: -47.5 mg/dL
Day 14, all dapansutrile subjects pooled (500-2000 mg), N = 14
  Fasting Glucose Level, Change from Baseline, Mean: -25.7 mg/dL
Day 14, all dapansutrile subjects pooled, N = 14
  Fasting Glucose Level, Change from Baseline, Median: -32.5 mg/dL
Day 14, all dapansutrile-treated subjects, p value of 0.029
  decrease of glucose level from the baseline level (in words): statistically significant decrease
Day 28 (14 days after last treatment), 500 mg daily oral, N = 6
  Fasting Glucose Level, Change from Baseline, Mean: 25.8 mg/dL
Day 28, 14 days after the last treatment
  drug effect on fasting glucose (in words): the drug effect was gone
Day 28, 500 mg daily oral, N = 6
  Fasting Glucose Level, Change from Baseline, Median: -1.5 mg/dL
[1]
  Fasting Glucose Level, Change from Baseline, Mean: 7.3 mg/dL
  Fasting Glucose Level, Change from Baseline, Median: -7.0 mg/dL
[2]
  Fasting Glucose Level, Change from Baseline, Mean: -18.0 mg/dL
  Fasting Glucose Level, Change from Baseline, Median: -21.5 mg/dL
[3]
  Fasting Glucose Level, Change from Baseline, Mean: 8.0 mg/dL
  Fasting Glucose Level, Change from Baseline, Median: -8.0 mg/dL

— patent publication US12569463B2, “Method for treating diabetes” (Olatec Therapeutics, Inc., priority 2020, dated 2026)
